Experimental data reported in patent US20140057961A1, “SIN3B COMPLEX INHIBITION AND USE THEREOF IN THE PREVENTION OF PRO-ONCOGENIC INFLAMMATION AND CANCER” (New York University, priority 2012, published 2014).

Legend:
[1] = test system: IL-1α expression in BxPc3 human PDAC cells; assay: Quantitative RT-PCR for IL-1α mRNA expression in BxPc3 pancreatic cancer cells; format: cell-based; conditions: BxPc3 cells treated 48 hours with 0.2 μM or 1 μM, relative to DMSO; FIG. 5, p<0.05
Procedure: Quantitative PCR for Sin3B (*p<0.005) and IL-1α (*p<0.05) mRNA expression in BxPc3 pancreatic cancer cell lines. BxPc3 were infected with an empty vector or a shRNA against Sin3B (shSin3B). ShSin3B mRNA expressions are relative to the empty vector expression.
(§1) Quantitative PCR for IL-1α and IL-6 mRNA expression in BxPc3 pancreatic cancer cell lines. BxPc3 has been treated 48 hours with vehicle DMSO, 0.2 μM (TSA 0.2) or 1 μM (TSA 1) of Trichostatin A. Sin3B and IL-1α mRNA expressions are relative to the expressions in DMSO (*p<0.05).
(§2) BxPc3 human pancreatic cancer cell lines are known in the art and available from American Type Culture Collection (ATCC, Manassas, Va.). Cells were cultured in RPMI, 10% FBS, Sodium Pyruvate, HEPES and Penicillin/[…]. The cultures were maintained in 5% CO2 at 37° C.
DNA sequences encoding shRNAs for Sin3B (shSin3B) were selected and cloned into the PLKO retroviral vector (Open Biosystem). BxPc3 cells were infected with shSin3B or PLKO for 3 days and selected in puromycin for 5 days. The level of Sin3B knockdown by shSin3B was determined by quantitative RT-PCR.
Extraction of total RNA from Pancreas and PDECs was performed using RNEASY mini kit (QIAGEN). […] Quantitative RT-PCR analyses were done using the SYBR Green method and the samples were run on the BIO-RAD I cycler MYIQ. […]

[2] = test system: IL-6 expression in BxPc3 human PDAC cells; assay: Quantitative RT-PCR for IL-6 mRNA expression in BxPc3 pancreatic cancer cells; format: cell-based; conditions: BxPc3 cells treated 48 hours with 0.2 μM or 1 μM, relative to DMSO; FIG. 5
Procedure: as §1, §2
Extraction of total RNA from Pancreas and PDECs was performed using RNEASY mini kit (QIAGEN). For the pancreas, a piece was snap-frozen, ground, and the frozen powder was added to the RNEASY lysis buffer. Reverse transcription was done using Moloney murine leukemia virus polymerase and oligo(dT) primers. RT-PCR analyses were done using Tag DNA polymerase (5 Prime) and dNTP (Promega). Quantitative RT-PCR analyses were done using the SYBR Green method and the samples were run on the BIO-RAD I cycler MYIQ. Expression levels were normalized to GAPDH. Results were reported as relative to the abundance of mSin3B^+/− or mSin3^B+/− KRas^G12D transcripts. […]

Sin3B expression = conditions: van Oevelen, et al. (2008) Mol. Cell. 32:359-370; cited from earlier work

Molecule | IL-1α expression after TSA treatment [1] | IL-6 expression after TSA treatment [2] | Sin3B expression (Sin3B expression)
CC(/C=C/C(=O)NO)=C\[C@@H](C)C(=O)c1ccc(N(C)C)cc1 [trichostatin A] | specific and dose-dependent down-regulation | not significantly affected | 
GCAAAGCGGUCCCUGUUUAUU (listed as RNA, chemistry not given here) [SEQ ID NO:6] |  |  | inhibit Sin3B expression
GGCAAUGGGUCGUGCGAGAUU (chemistry not given here) [SEQ ID NO:7] |  |  | inhibit Sin3B expression
